Results: patent publication US7671057B2, “Therapeutic agent for type II diabetes comprising protease-inhibiting compound” (Ono Pharmaceutical Co., Ltd., priority 2004, dated 2010)
“Also recorded” adds a separate entry of the source.

Tests used:
[1] = tested on: pancreatic Langerhans' islets; test: Histopathological analysis of the pancreas (Example 3); format: in vivo, mouse; conditions: Day 28
Experimental: Histopathological analysis of the pancreas (pathological analysis of the pancreatic Langerhans' islets (α-, β- and δ-cells) was carried out by embedding the tissue in paraffin, followed by thin slicing and respective staining through the Grimelius staining, Gomori's aldehyde-fuchsin staining and Hellman-Hellerstroem' staining.

KK-A^y/Ta Jcl mice [2] = test: Total pancreatic insulin content (Example 3); format: in vivo, mouse
Experimental: (§1) The blood samples taken from the tail vein on the respective specified days after the administration were subjected to measurement of the blood-sugar level in accordance with the method as described in Example 1, while the plasma glucagon level after the forced oral administration performed on Days 28 was measured in accordance with the ELISA method as described in Example 1. Also, the glycosylated hemoglobin (HbA1c) and GLP-1 levels were determined in accordance with the latex coagulation method and the ELISA method (YK160, GLP-1 EIA Kit, produced by K.K. Yanaihara Kenkyu-sho of Japan), respectively, while the TG level was measured in accordance with the method as described in Example 1. The total pancreatic insulin content after oral administration of each compound was determined by adding 75% ethanol to the isolated pancreas as frozen, followed by homogenization, and collecting the insulin fraction through Sep-Pak (C18; WATER) treatment of the supernatant liquid produced by centrifugation, followed by determination with the ELIZA method.

KK-A^y/Ta Jcl mice [3] = test: Blood-sugar level, administration as admixture with food (Example 2); format: in vivo, mouse
Experimental: (§2) KK-A^y/Ta Jcl Mice (male, 6- to 7-weeks aged, the number of cases; 8 animals) were treated through individual administration, in the form of an admixture with a food, of the Test Compound 2 (N-allyl-N-{(2E)-3-[4-({4-[amino(imino)methyl]phenoxy}-carbonyl)phenyl]-2-methyl-2-propenoyl}glycine/dimethane-sulfonate) of the present invention and the Control Compound 1 (5-(4-[2-(5-ethylpyridine-2-yl)ethoxy]benzyl)-1,3-thiazolidine-2,4-dione; pioglitazone) at the daily dose of 16.8 mg/100 g-food for 7 consecutive days, whereby the control group was fed with an ordinary food alone.
(§3) Blood was drawn from the tail vein individually on the day (Day 1) preceding to administration of the Test Compound in the form of an admixture with a food, and on Days 2, 5, 7 and 14 of administration, and the blood samples were subjected to measurement of the blood-sugar level in accordance with the same procedure as described in Example 1, while, at the same time, the animals were weighed.

KK-A^y/Ta Jcl mice [4] = test: Blood-sugar level at satiety, dose-ranging food admixture up to Day 28 (Example 3); format: in vivo, mouse; conditions: for Blood-sugar level: end of the test (Day 28)
Experimental: KK-A^y/Ta Jcl Mice (male, 6-weeks aged, the number of cases; 8 animals) were treated through individual administration, in the form of an admixture with a food, of the Test Compound 2 (N-allyl-N-{(2E)-3-[4-({4-[amino(imino)methyl]phenoxy}-carbonyl)phenyl]-2-methyl-2-propenoyl}glycine/dimethanesulfonate) of the present invention at the daily doses of 0.56 mg, 1.68 mg, 5.6 mg and 16.8 mg/100 g-food, respectively, and the Control Compound 1 (5-{4-[2-(5-ethylpyridine-2-yl)-ethoxy]benzyl}-1,3-thiazolidine-2,4-dion; pioglitazone) at the daily doses of 5.6 mg and 16.8 mg/100 g-food, respectively, […], whereby the control group was fed with an ordinary food alone.
Blood was drawn from the tail vein individually on the day preceding to administration of each compound in the form of an admixture with a food, and on Days 6, 11, 16, 21 and 28 of administration.
as §1

[5] = Body weight, administration as admixture with food (Example 2); format: in vivo, mouse
Experimental: as §2, §3

KK-A^y/Ta Jcl mice [6] = test: Plasma GLP-1, glucagon, blood-sugar, HbA1c and TG 30 min after forced oral administration on Day 28 (Example 3); format: in vivo, mouse
Experimental: (§4) On Day 28 of administration of each compound in the form of an admixture with a food, furthermore, each animal after blood had been drawn from the tail vein was treated through individual forced oral administration of the Test Compound 2 in the form of the solutions individually consisting of 0.2, 0.6, 2.0 and 6.0 mg/mL-0.5% CMC suspension in each 5 mL/kg portion, as well as the Control Compound 1 in the form of the solutions individually consisting of 2.0 and 6 mg/mL-0.5% CMC suspension in each 5 ml/kg portion, followed by blood drawing 30 min. later and autopsy to thereby measure the weights of the pancreas, liver and kidney, whereby the control group was treated through administration of the 0.5% CMC suspension in the same portion.
as §1

KK-A^y/Ta Jcl mice [7] = test: Weights of pancreas, liver and kidney at autopsy (Example 3); format: in vivo, mouse
Experimental: as §4

[8] = biological target: leukotriene B4 (LTB4) receptor (Homo sapiens, UniProt Q15722); conditions: cited from earlier work
[9] = day preceding administration (baseline), 16.8 mg/100 g-food group
[10] = autopsy Day 28, Dose 0.56 (g/100 g-food)
[11] = autopsy Day 28, Dose 1.68 (g/100 g-food)
[12] = autopsy Day 28, Dose 16.8 (g/100 g-food)

Sequence of leukotriene B4 (LTB4) receptor (Q15722 whole entry): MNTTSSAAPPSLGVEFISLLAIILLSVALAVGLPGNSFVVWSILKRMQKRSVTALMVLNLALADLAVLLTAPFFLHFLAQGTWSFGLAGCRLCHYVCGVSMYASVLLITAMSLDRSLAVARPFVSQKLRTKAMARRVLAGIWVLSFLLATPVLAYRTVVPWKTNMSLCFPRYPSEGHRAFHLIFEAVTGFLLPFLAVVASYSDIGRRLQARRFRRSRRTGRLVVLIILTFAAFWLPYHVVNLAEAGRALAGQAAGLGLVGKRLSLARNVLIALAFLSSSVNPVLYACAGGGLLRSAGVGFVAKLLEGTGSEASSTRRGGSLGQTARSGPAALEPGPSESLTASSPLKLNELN

C=CCN(CC(=O)O)C(=O)/C(C)=C/c1ccc(C(=O)Oc2ccc(C(=N)N)cc2)cc1 [Test Compound 2, N-allyl-N-{(2E)-3-[4-({4-[amino(imino)methyl]phenoxy}-carbonyl)phenyl]-2-methyl-2-propenoyl}glycine/dimethane-sulfonate]
Number of pancreatic B-cells (postmortem findings) [1]: increase the number of pancreatic B-cells | Size of Langerhans' cells of the pancreatic islets (postmortem findings) [1]: enlarge the Langerhans' cells of the pancreatic islets | Total pancreatic insulin content (in words) (KK-A^y/Ta Jcl mice [2]; Day 28): increase in the total pancreatic insulin content | Total pancreatic insulin content (KK-A^y/Ta Jcl mice [2]; Day 28, Dose 1.68 (g/100 g-food)): 9.40 ± 2.24 µg | Total pancreatic insulin content (KK-A^y/Ta Jcl mice [2]; Day 28, Dose 5.6 (g/100 g-food)): 17.11 ± 2.76 µg | Blood-sugar level Day 2 (KK-A^y/Ta Jcl mice [3]; 16.8 mg/100 g-food admixture): 286.5 ± 58.3 mg/dL | Blood-sugar level Day 5 (KK-A^y/Ta Jcl mice [3]; 16.8 mg/100 g-food admixture): 314.8 ± 14.4 mg/dL | Blood-sugar level Day 7 (KK-A^y/Ta Jcl mice [3]; 16.8 mg/100 g-food admixture): 291.0 ± 5.1 mg/dL | Blood-sugar level Day 14 (KK-A^y/Ta Jcl mice [3]; 16.8 mg/100 g-food admixture): 248.0 ± 11.5 mg/dL | Blood-sugar level Day 1 (KK-A^y/Ta Jcl mice [3]; [9]): 300.0 ± 18.9 mg/dL | Blood-sugar lowering action (in words) (KK-A^y/Ta Jcl mice [3]; food admixture 16.8 mg/100 g-food, as from Day 5 afterwards): significant blood-sugar lowering action; also recorded: more potent blood-sugar lowering action | Time-course changes in blood-sugar level at satiety vs Control Group (in words, FIG. 1) (KK-A^y/Ta Jcl mice [4]; 5.6 mg/100 g group): significant drop in the blood-sugar level at the end of the test | Time-course changes in blood-sugar level at satiety vs Control Group (in words, FIG. 1) (KK-A^y/Ta Jcl mice [4]; 16.8 mg/100 g group): significant continued drops in the blood-sugar level | Blood-sugar level (KK-A^y/Ta Jcl mice [4]; Dose 0.56 (g/100 g-food)): 524.6 ± 47.3 mg/dL | Blood-sugar level (KK-A^y/Ta Jcl mice [4]; Dose 1.68 (g/100 g-food)): 620.9 ± 79.6 mg/dL | Blood-sugar level (KK-A^y/Ta Jcl mice [4]; Dose 5.6 (g/100 g-food)): 369.7 ± 39.6 mg/dL | Blood-sugar level (KK-A^y/Ta Jcl mice [4]; Dose 16.8 (g/100 g-food)): 251.2 ± 34.7 mg/dL | Body weight Day 2 ([5]; 16.8 mg/100 g-food admixture): 29.8 ± 0.7 g | Body weight Day 5 ([5]; 16.8 mg/100 g-food admixture): 30.6 ± 0.8 g | Body weight Day 7 ([5]; 16.8 mg/100 g-food admixture): 32.4 ± 1.0 g | Body weight Day 14 ([5]; 16.8 mg/100 g-food admixture): 34.6 ± 1.3 g | Body weight Day 1 [5, 9]: 30.6 ± 0.6 g | Effect on body weight (in words) ([5]; food admixture 16.8 mg/100 g-food, time course): not observed to produce any difference from the control group; also recorded: did not show any body-weight elevating actions | Change in HbA1C level (in words) (KK-A^y/Ta Jcl mice [6]): decreased | Change in TG level (in words) (KK-A^y/Ta Jcl mice [6]): decreased | Change in blood-sugar level (in words) (KK-A^y/Ta Jcl mice [6]): decreased | Change in plasma glucagon level (in words) (KK-A^y/Ta Jcl mice [6]): drops in the plasma glucagon level | Change in plasma GLP-1 level (in words) (KK-A^y/Ta Jcl mice [6]; 30 min after forced oral administration): plasma GLP-1 increasing effect | Weight of the kidney (in words) (KK-A^y/Ta Jcl mice [7]; autopsy Day 28): suppressed from rising | Weight of the liver (in words) (KK-A^y/Ta Jcl mice [7]; autopsy Day 28): suppressed from rising | Weight of the pancreas (in words) (KK-A^y/Ta Jcl mice [7]; autopsy Day 28): increased | Weight Kidney (KK-A^y/Ta Jcl mice [7]; [10]): 0.47 ± 0.01 g | Weight Liver (KK-A^y/Ta Jcl mice [7]; [10]): 2.01 ± 0.08 g | Weight Pancreas (KK-A^y/Ta Jcl mice [7]; [10]): 0.342 ± 0.01 g | Weight Kidney (KK-A^y/Ta Jcl mice [7]; [11]): 0.49 ± 0.01 g | Weight Liver (KK-A^y/Ta Jcl mice [7]; [11]): 2.08 ± 0.07 g | Weight Pancreas (KK-A^y/Ta Jcl mice [7]; [11]): 0.41 ± 0.02 g | Weight Kidney (KK-A^y/Ta Jcl mice [7]; [12]): 0.41 ± 0.01 g | Weight Liver (KK-A^y/Ta Jcl mice [7]; [12]): 1.52 ± 0.06 g | Weight Pancreas (KK-A^y/Ta Jcl mice [7]; [12]): 0.45 ± 0.03 g | LTB4 receptor antagonistic action [8]: LTB4 antagonistic action
